Measurements as given in patent publication US11053213B2, “Pharmaceutical compounds” (ALMAC DISCOVERY LIMITED, priority 2016, dated 2021).

What follows are molecules tested on panel of DUBs (24 USPs and 19 other DUBs) (assay: Selectivity profile against a panel of DUBs (Ub-Rh110 substrate, Ubiquigent)). Details: fixed concentration of 100 μM.
Assay type: biochemical
Method: FIG. 1 Overall selectivity profile of Example 124 against a panel of DUBs. Included in this screen were 24 USPs and 19 other DUBs (as indicated). Example 124 was screened at a fixed concentration of 100 μM using the Ub-Rh110 substrate (Ubiquigent). Residual activity is shown on the y-axis normalised to the no compound (DMSO) control.

Row | Structure (SMILES) | Overall selectivity profile (residual activity normalised to DMSO control)
1 | C[C@H](CC1CCCCC1)C(=O)N1CC[C@@](O)(Cn2cc(C(=O)N3CCNCC3)c(-c3ccccc3)cc2=O)C(C)(C)C1 [Example 124, 1-(((S)-1-((R)-3-Cyclohexyl-2-methylpropanoyl)-4-hydroxy-3,3-dimethylpiperidin-4-yl)methyl)-4-phenyl-5-(piperazine-1-carbonyl)pyridin-2(1H)-one] | selectivity is demonstrated

Each molecule was assayed against USP19 (Homo sapiens (Human), UniProt O94966) (assay: USP19 activity assay (fluorescence polarisation, Ubiquitin-Lys-TAMRA substrate)). Details: full-length USP19 2.5 nM, 30 min pre-incubation, Ub substrate 500 nM; average of at least two duplicate experiments.
Sequence of USP19 (O94966 whole entry): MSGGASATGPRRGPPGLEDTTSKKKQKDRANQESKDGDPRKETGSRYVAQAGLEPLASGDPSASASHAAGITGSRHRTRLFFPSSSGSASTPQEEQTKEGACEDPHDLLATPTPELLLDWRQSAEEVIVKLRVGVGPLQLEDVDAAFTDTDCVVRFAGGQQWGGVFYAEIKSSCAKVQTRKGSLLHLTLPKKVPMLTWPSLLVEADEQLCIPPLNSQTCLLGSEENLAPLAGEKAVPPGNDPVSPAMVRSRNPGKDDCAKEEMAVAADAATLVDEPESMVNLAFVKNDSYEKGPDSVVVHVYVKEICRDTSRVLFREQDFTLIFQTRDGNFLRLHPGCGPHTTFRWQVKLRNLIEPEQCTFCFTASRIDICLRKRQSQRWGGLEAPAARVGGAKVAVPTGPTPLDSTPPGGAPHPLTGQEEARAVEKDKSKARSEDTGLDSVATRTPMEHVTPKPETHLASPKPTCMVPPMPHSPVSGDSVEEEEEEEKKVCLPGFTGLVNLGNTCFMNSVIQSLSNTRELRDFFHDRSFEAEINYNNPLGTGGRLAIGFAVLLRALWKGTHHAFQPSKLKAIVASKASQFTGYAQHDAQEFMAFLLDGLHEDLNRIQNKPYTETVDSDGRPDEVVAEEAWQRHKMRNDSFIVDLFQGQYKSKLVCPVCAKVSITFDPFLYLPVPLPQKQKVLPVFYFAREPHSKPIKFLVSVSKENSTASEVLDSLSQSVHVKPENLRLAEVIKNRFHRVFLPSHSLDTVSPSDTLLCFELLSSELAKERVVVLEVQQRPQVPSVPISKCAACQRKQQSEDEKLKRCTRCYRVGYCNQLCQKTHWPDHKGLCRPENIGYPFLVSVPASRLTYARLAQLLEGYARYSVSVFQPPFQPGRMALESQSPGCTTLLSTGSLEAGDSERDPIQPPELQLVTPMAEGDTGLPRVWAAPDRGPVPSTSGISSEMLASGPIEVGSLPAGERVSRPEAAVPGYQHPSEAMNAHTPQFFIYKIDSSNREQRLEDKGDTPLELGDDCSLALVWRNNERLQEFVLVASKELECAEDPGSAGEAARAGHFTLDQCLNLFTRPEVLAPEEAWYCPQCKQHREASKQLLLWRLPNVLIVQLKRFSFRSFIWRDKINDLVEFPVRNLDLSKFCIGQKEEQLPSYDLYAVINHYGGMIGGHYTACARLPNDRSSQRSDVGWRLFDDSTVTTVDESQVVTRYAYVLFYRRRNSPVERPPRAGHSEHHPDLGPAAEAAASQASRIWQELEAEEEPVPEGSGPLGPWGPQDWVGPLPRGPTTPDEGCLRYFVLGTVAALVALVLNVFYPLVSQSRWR
Assay type: biochemical

Row | Structure (SMILES) | IC50 [µM]
2 | C[C@H](CC1CCCCC1)C(=O)N1CC[C@@](O)(Cn2cc(C(=O)N3CCNCC3)c(-c3ccccc3)cc2=O)C(C)(C)C1 [Example 124, 1-(((S)-1-((R)-3-Cyclohexyl-2-methylpropanoyl)-4-hydroxy-3,3-dimethylpiperidin-4-yl)methyl)-4-phenyl-5-(piperazine-1-carbonyl)pyridin-2(1H)-one] | < 0.5
3 | C[C@H](CC(=O)N1CCC(O)(Cn2cc(C(=O)NC3CCCCC3)c(-c3ccccc3)cc2=O)CC1)c1ccccc1 [Example 65, (R)—N-Cyclohexyl-1-((4-hydroxy-1-(3-phenylbutanoyl)piperidin-4-yl)methyl)-6-oxo-4-phenyl-1,6-dihydropyridine-3-carboxamide] | 5 to 50
4 | C[C@H](CC1CCCCC1)C(=O)N1CCC(O)(Cn2cc(C(=O)N3CCNCC3)c(-c3ccccc3)cc2=O)C2(CCCCC2)C1 (stereo partly drawn) [Example 238, 1-((2-((R)-3-Cyclohexyl-2-methylpropanoyl)-5-hydroxy-2-azaspiro[5.5]undecan-5-yl)methyl)-4-phenyl-5-(piperazine-1-carbonyl)pyridin-2(1H)-one] | < 0.5
5 | C[C@H](CC1CCCCC1)C(=O)N1CCC(O)(Cn2cnccc2=O)C2(CCCC2)C1 (stereo partly drawn) [Example 134, 3-((7-((R)-3-Cyclohexyl-2-methylpropanoyl)-10-hydroxy-7-azaspiro[4.5]decan-10-yl)methyl)pyrimidin-4(3H)-one] | 5 to 50
6 | C[C@H](CC1CCC1)C(=O)N1CC[C@@](O)(Cn2cc(C(=O)N(C)C)c(C3CC3)cc2=O)C2(CCCC2)C1 [Example 230, 1-(((S)-7-((R)-3-Cyclobutyl-2-methylpropanoyl)-10-hydroxy-7-azaspiro[4.5]decan-10-yl)methyl)-4-cyclopropyl-N,N-dimethyl-6-oxo-1,6-dihydropyridine-3-carboxamide] | 0.5 to 5
